The term melting point denotes the temperature of the solid-liquid transition. With `CC(=O)C1(c2ccccc2)CCN(C(=O)c2nc(-c3ccc(Cl)cc3)c(-c3ccc(Cl)cc3Cl)o2)CC1`, the melting point came out at 175 °C.

The record behind these values is patent US7320978B2, “Oxazole derivatives, preparation and therapeutic use thereof” (Sanofi-Aventis, priority 2004, dated 2008).
